Source: PubChem BioAssay AID328 (DTP/NCI, 2004)
Where “and” joins values, the source holds several entries; their conditions need not be identical. Identical values can stand only once. Toxic doses and inconclusive results are not listed. Rule for the calls: active = survival T/C of 150% or more; inactive = T/C below 125% in these data.

Test system: BDF1 mice, P388 leukemia ip, median survival T/C
Test: NCI In Vivo Anticancer Drug Screen. Data for tumor model P388 Leukemia (intraperitoneal) in B6D2F1 (BDF1) mice
Conditions: endpoint: median survival time, higher = longer survival
Procedure, shortened: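 Transplantable tumour in mice; compound vs vehicle dosing; survival scored; ratio of treated to control reported.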

[1] = dose: 50.0 mg/kg/injection, schedule: Q01DX009 (ip), vehicle: saline with Tween-80
[2] = dose: 100.0 mg/kg/injection, schedule: Q01DX009 (ip), vehicle: saline with Tween-80
[3] = dose: 200.0 mg/kg/injection, schedule: Q01DX009 (ip), vehicle: saline with Tween-80
[4] = dose: 25.0 mg/kg/injection, schedule: Q04DX003 (ip), vehicle: saline
[5] = dose: 50.0 mg/kg/injection, schedule: Q04DX003 (ip), vehicle: saline
[6] = dose: 100.0 mg/kg/injection, schedule: Q04DX003 (ip), vehicle: saline
[7] = dose: 100.0 mg/kg/injection, schedule: Q04DX003 (ip), vehicle: Klucel (hydroxypropylcellulose) (HPC)
[8] = dose: 200.0 mg/kg/injection, schedule: Q04DX003 (ip), vehicle: Klucel (hydroxypropylcellulose) (HPC)
[9] = dose: 200.0 mg/kg/injection, schedule: Q04DX003 (ip), vehicle: saline
[10] = dose: 400.0 mg/kg/injection, schedule: Q01DX009 (ip), vehicle: saline with Tween-80
[11] = dose: 400.0 mg/kg/injection, schedule: Q04DX003 (ip), vehicle: saline
[12] = dose: 100.0 mg/kg/injection, schedule: Q04DX003 (ip), vehicle: saline with Tween-80
[13] = dose: 200.0 mg/kg/injection, schedule: Q04DX003 (ip), vehicle: saline with Tween-80
[14] = dose: 400.0 mg/kg/injection, schedule: Q04DX003 (ip), vehicle: saline with Tween-80
[15] = dose: 50.0 mg/kg/injection, schedule: Q04DX003 (ip), vehicle: saline with Tween-80
[16] = dose: 1.56 mg/kg/injection, schedule: Q01DX009 (ip), vehicle: saline with Tween-80
[17] = dose: 6.25 mg/kg/injection, schedule: Q01DX009 (ip), vehicle: saline with Tween-80
[18] = dose: 12.5 mg/kg/injection, schedule: Q01DX009 (ip), vehicle: saline with Tween-80
[19] = dose: 400.0 mg/kg/injection, schedule: Q04DX003 (ip), vehicle: Klucel (hydroxypropylcellulose) (HPC)

Measured: T/C

CC(O)CC1CCCCN1O (stereo not drawn)
inactive: dose: 100.0 mg/kg/injection, schedule: Q04DX002 (ip), vehicle: saline with Tween-80 110 % of control | dose: 200.0 mg/kg/injection, schedule: Q04DX002 (ip), vehicle: saline with Tween-80 101 % of control | dose: 400.0 mg/kg/injection, schedule: Q04DX002 (ip), vehicle: saline with Tween-80 100 % of control

COC(=O)/C=C1\Sc2ccc(Cl)cc2NC1=O
inactive: [1] 93 % of control | [2] 86 % of control | [3] 93 % of control

CCN(CC)CCCOC(=O)/C=C/c1c(C)[nH]c(=O)[nH]c1=O
inactive: [4] 104 % of control | [5] 117 % of control | [6] 90 % of control

CC(/C=N/N=C(N)N)=N\N=C(N)N
inactive: dose: 40.0 mg/kg/injection, schedule: Q01DX009 (ip), vehicle: water 86 % of control | dose: 60.0 mg/kg/injection, schedule: Q01DX010 (ip), vehicle: water 88 % of control

CCCC#CC#N
inactive: dose: 25.0 mg/kg/injection, schedule: Q01DX009 (ip), vehicle: olive oil, sesame oil, peanut oil 104 % of control | dose: 50.0 mg/kg/injection, schedule: Q01DX009 (ip), vehicle: olive oil, sesame oil, peanut oil 91 % of control

CN(/N=C/C(O)C(O)C(O)CO)c1ccccc1 (stereo not drawn)
inactive: dose: 50.0 mg/kg/injection, schedule: Q04DX003 (ip), vehicle: Klucel (hydroxypropylcellulose) (HPC) 105 % of control | [7] 105 % of control | [8] 100 % of control

C#CC1(OCC2CN(c3ccccc3)C(=O)O2)CCCCC1 (stereo not drawn)
inactive: [2] 90 % of control | [6] 100 % of control | [3] 100 % of control | [9] 100 % of control | [10] 109 % of control | [11] 100 % of control

c1ccc2c(c1)Sc1ccccc1N2CC1CCCN2CCCCC12 (stereo not drawn)
inactive: dose: 12.5 mg/kg/injection, schedule: Q01DX001 (ip), vehicle: Klucel (hydroxypropylcellulose) (HPC) 106 % of control | dose: 25.0 mg/kg/injection, schedule: Q01DX001 (ip), vehicle: Klucel (hydroxypropylcellulose) (HPC) 100 % of control | dose: 50.0 mg/kg/injection, schedule: Q01DX001 (ip), vehicle: Klucel (hydroxypropylcellulose) (HPC) 93 % of control

CS(=O)CC(O)(c1ccccc1)c1cccs1 (stereo not drawn)
inactive: [1] 100 % of control | [2] 93 % of control | [3] 100 % of control

C[n+]1ccc(/C=C/c2ccc(Cl)c(Cl)c2)cc1
inactive: dose: 1.5 mg/kg/injection, schedule: Q01DX009 (ip), vehicle: Klucel (hydroxypropylcellulose) (HPC) 95 % of control | dose: 3.0 mg/kg/injection, schedule: Q01DX009 (ip), vehicle: Klucel (hydroxypropylcellulose) (HPC) 109 % of control | dose: 3.0 mg/kg/injection, schedule: Q04DX003 (ip), vehicle: Klucel (hydroxypropylcellulose) (HPC) 100 % of control | dose: 6.0 mg/kg/injection, schedule: Q04DX003 (ip), vehicle: Klucel (hydroxypropylcellulose) (HPC) 100 % of control

O=C(NO)/C(Cc1ccccc1)=N/O
inactive: [1] 99 % of control | [2] 104 % of control | [3] 98 % of control

CC1C=CC(C(N)C(=O)O)O1 (stereo not drawn)
inactive: [6] 100 % of control | [9] 100 % of control | [11] 95 % of control and 100 % of control

Cc1cc(=O)n(Cc2ccco2)c(=S)[nH]1
inactive: dose: 50.0 mg/kg/injection, schedule: Q01DX005 (ip), vehicle: saline with Tween-80 98 % of control | dose: 100.0 mg/kg/injection, schedule: Q01DX005 (ip), vehicle: saline with Tween-80 93 % of control

Nc1[nH]nc2nccnc12
inactive: [2] 108 % of control | [12] 100 % of control | [3] 100 % of control | [13] 104 % of control | [10] 100 % of control | [14] 109 % of control

C#CCOC1CCCCO1 (stereo not drawn)
inactive: dose: 25.0 mg/kg/injection, schedule: Q01DX009 (ip), vehicle: saline 90 % of control | dose: 50.0 mg/kg/injection, schedule: Q01DX009 (ip), vehicle: saline 100 % of control | dose: 100.0 mg/kg/injection, schedule: Q01DX009 (ip), vehicle: saline 100 % of control

C=CC(=O)c1c(O)cc(O)c2c1C(C)C(=O)O2 (stereo not drawn)
inactive: dose: 75.0 mg/kg/injection, schedule: Q01DX009 (ip), vehicle: Klucel (hydroxypropylcellulose) (HPC) 113 % of control

Clc1ccccc1N1CN(c2ccccc2Cl)CN(c2ccccc2Cl)C1
inactive: [1] 104 % of control | [2] 100 % of control | [3] 100 % of control

CC(NC(=O)/C=C\C(=O)O)c1ccccc1 (stereo not drawn)
inactive: [12] 100 % of control | [13] 91 % of control | [14] 112 % of control

O=[N+]([O-])c1ccc(N/N=C(\CCl)c2ccccc2)c([N+](=O)[O-])c1
inactive: dose: 25.0 mg/kg/injection, schedule: Q01DX001 (ip), vehicle: saline with Tween-80 109 % of control | dose: 50.0 mg/kg/injection, schedule: Q01DX001 (ip), vehicle: saline with Tween-80 104 % of control | dose: 100.0 mg/kg/injection, schedule: Q01DX001 (ip), vehicle: saline with Tween-80 104 % of control

COc1cccn(C/C=C(\C)CCC=C(C)C)c1=O
inactive: dose: 25.0 mg/kg/injection, schedule: Q01DX009 (ip), vehicle: saline with Tween-80 116 % of control | [1] 109 % of control | [15] 91 % of control | dose: 80.0 mg/kg/injection, schedule: Q01DX009 (ip), vehicle: saline with Tween-80 93 % of control | [12] 100 % of control | dose: 150.0 mg/kg/injection, schedule: Q01DX009 (ip), vehicle: saline with Tween-80 116 % of control

CCc1cccc(CC)c1N1C(=O)C=CC1=O
inactive: [16] 114 % of control | dose: 3.13 mg/kg/injection, schedule: Q01DX009 (ip), vehicle: saline with Tween-80 100 % of control | [17] 106 % of control | [18] 99 % of control

CCCCCCc1nc2nc(Cl)c(Cl)nc2[nH]1
inactive: dose: 0.78 mg/kg/injection, schedule: Q01DX009 (ip), vehicle: saline with Tween-80 100 % of control | [16] 89 % of control | dose: 3.12 mg/kg/injection, schedule: Q01DX009 (ip), vehicle: saline with Tween-80 92 % of control | [17] 92 % of control | [18] 95 % of control

O=[N+]([O-])c1ccc(/C=C/c2ncccn2)o1
inactive: [7] 100 % of control | [8] 100 % of control | [19] 100 % of control

OC(C1CCCCC1)(C1CCCCC1)C1CCCCC1
inactive: dose: 100.0 mg/kg/injection, schedule: Q01DX009 (ip), vehicle: other 104 % of control | [7] 91 % of control | dose: 200.0 mg/kg/injection, schedule: Q01DX009 (ip), vehicle: other 100 % of control | [8] 100 % of control | dose: 400.0 mg/kg/injection, schedule: Q01DX009 (ip), vehicle: other 109 % of control | [19] 91 % of control

COc1cc2c3c(c1)-c1c(ccc(OC)c1Oc1nnnn1-c1ccccc1)CC3N(C)CC2 (stereo not drawn)
inactive: dose: 12.5 mg/kg/injection, schedule: Q04DX003 (ip), vehicle: saline 108 % of control | [4] 115 % of control | [5] 115 % of control | [6] 108 % of control | [9] 115 % of control

NC(COc1ccccc1)Cc1ccccc1 (stereo not drawn)
inactive: dose: 25.0 mg/kg/injection, schedule: Q04DX003 (ip), vehicle: saline with Tween-80 113 % of control | dose: 25.0 mg/kg/injection, schedule: Q04DX003 (ip), vehicle: suspension in saline 90 % of control | [15] 123 % of control | dose: 50.0 mg/kg/injection, schedule: Q04DX003 (ip), vehicle: suspension in saline 90 % of control | [12] 105 % of control | [6] 109 % of control | dose: 100.0 mg/kg/injection, schedule: Q04DX003 (ip), vehicle: suspension in saline 98 % of control

COc1cc[n+]([O-])cc1
inactive: [6] 95 % of control | [9] 95 % of control | [11] 100 % of control
